We go through nine compounds from patent US7064120B2, “Tricyclic pyridyl carboxamides and derivatives thereof tocolytic oxytocin receptor antagonists” (Wyeth, priority 2001, dated 2006).

One data set has as its target T1, human oxytocin receptor (Homo sapiens, UniProt P30559).
T1 construct: host or cells: CHO cells, stably transfected (pcDNA3.1 vector)
T1 sequence (P30559 1-389): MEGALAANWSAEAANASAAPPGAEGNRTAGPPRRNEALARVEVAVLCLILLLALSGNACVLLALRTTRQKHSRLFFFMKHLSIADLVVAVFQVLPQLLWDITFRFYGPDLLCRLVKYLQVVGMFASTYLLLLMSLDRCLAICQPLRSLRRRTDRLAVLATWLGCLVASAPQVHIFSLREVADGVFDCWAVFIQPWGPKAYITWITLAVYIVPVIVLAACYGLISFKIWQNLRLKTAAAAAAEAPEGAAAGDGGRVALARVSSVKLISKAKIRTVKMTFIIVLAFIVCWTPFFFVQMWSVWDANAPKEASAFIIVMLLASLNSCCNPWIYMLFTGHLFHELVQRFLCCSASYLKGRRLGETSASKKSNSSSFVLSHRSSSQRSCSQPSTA
As to the kind of experiment: Oxytocin binding in CHO cell membranes expressing human oxytocin receptors ([3H]oxytocin radioligand binding). Conditions: for IC50: value in parentheses, read-out: OT (IC50); for inhibition at 0.1 µM: 100 nM, read-out: OT % inhibition @ 100 nM. In a few lines:
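Values are % inhibition at one concentration or nM IC50 from [3H]oxytocin displacement. Membranes from human oxytocin receptor CHO cells, 25–50 μg protein/well, 60 min at room temperature, pH 7.4 Tris buffer with protease inhibitors; bound label by filtration and scintillation counting.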

In turn, `COc1cc(-c2ccccc2C(F)(F)F)c(Cl)cc1C(=O)N1Cc2ccc(C(=O)N(C)Cc3cccnc3)n2Cc2ccccc21` [Example 5, 10-{[6-Chloro-3-methoxy-2′-trifluoromethyl-[1,1′-biphenyl]-4-yl]carbonyl}-N-methyl-N-(pyridin-3-ylmethyl)-10,11-dihydro-5H-pyrrolo[2,1-c][1,4]benzodiazepine-3-carboxamide] returned a melting point of 124 to 126 °C. The IC50 on human oxytocin receptor came to 10.2 nM.

Compound `COc1cc(-c2ccccc2Cl)c(Cl)cc1C(=O)N1Cc2ccc(C(=O)N(C)Cc3cccnc3)n2Cc2ccccc21` [Example 6, 10-[(2′,6-Dichloro-3-methoxy-[1,1′-biphenyl]-4-yl)carbonyl]-N-methyl-N-(pyridin-3-ylmethyl)-10,11-dihydro-5H-pyrrolo[2,1-c][1,4]benzodiazepine-3-carboxamide] yielded a melting point of 196 to 198 °C. The half-inhibitory concentration (IC50) at human oxytocin receptor worked out at 7.51 nM.

For `COc1cc(C(=O)N2Cc3ccc(C(=O)N(C)Cc4ccc[n+]([O-])c4)n3Cc3ccccc32)ccc1-c1ccccc1C(F)(F)F` [Example 8, 10-{[2-Methoxy-2′-trifluoromethyl-[1,1′-biphenyl]-4-yl]carbonyl}-N-methyl-N-(1-oxo-pyridin-3-ylmethyl)-10,11-dihydro-5H-pyrrolo[2,1-c][1,4]benzodiazepine-3-carboxamide], the melting point was 165 to 170 °C (dec.). The IC50 on human oxytocin receptor is 4.65 nM.

`COc1cccc(-c2ccc(C(=O)N3Cc4ccc(C(=O)N(C)Cc5cccnc5)n4Cc4ccccc43)cc2C)c1` [Example 102, 10-[(3′-Methoxy-2-methyl-[1,1′-biphenyl]4-yl)carbonyl]-N-methyl-N-(3-pyridinyImethyl)-10,11-dihydro-5H-pyrrolo[2,1-c][1,4]benzodiazepine-3-carboxamide]: the IC50 on human oxytocin receptor came out at 4.14 nM.

With `COc1ccccc1-c1ccc(C(=O)N2Cc3ccc(C(=O)N(C)Cc4cccnc4)n3Cc3ccccc32)cc1OC` [Example 103, 10-[(2,2′-Dimethoxy-[1,1′-biphenyl]-4-yl)carbonyl]-N-methyl-N-(3-pyridinylmethyl)-10,11-dihydro-5H-pyrrolo[2,1-c][1,4]benzodiazepine-3-carboxamide], on human oxytocin receptor, the IC50 stood at 6.25 nM.

In the case of `COc1ccccc1-c1ccc(C(=O)N2Cc3ccc(C(=O)N(C)Cc4cccnc4)n3Cc3ccccc32)cc1` [Example 104, 10-[(2′-Methoxy-[1,1′-biphenyl]-4-yl)carbonyl]-N-methyl-N-(3-pyridinylmethyl)-10,11-dihydro-5H-pyrrolo[2,1-c][1,4]benzodiazepine-3-carboxamide], the inhibition at 0.1 µM at human oxytocin receptor worked out at 99%.

Consider `Cc1ccccc1-c1ccc(C(=O)N2Cc3ccc(C(=O)N(C)Cc4cccnc4)n3Cc3ccccc32)cc1` [Example 105, N-Methyl-10-[(2′-methyl-[1,1′-biphenyl]-4-yl)carbonyl]-N-(3-pyridinylmethyl)-10,11-dihydro-5H-pyrrolo[2,1-c][1,4]benzodiazepine-3-carboxamide], for which the inhibition at 0.1 µM at human oxytocin receptor was -9%.

Regarding `Cc1cc(C(=O)N2Cc3ccc(C(=O)N(C)Cc4cccnc4)n3Cc3ccccc32)ccc1-c1ccccc1C(F)(F)F` [Example 112, N-Methyl-10-{[2-methyl-2′-trifluoromethyl-[1,1′-biphenyl]-4-yl]carbonyl}-N-(3-pyridinylmethyl)-10,11-dihydro-5H-pyrrolo[2,1-c][1,4]benzodiazepine-3-carboxamide], the half-maximal inhibitory concentration (IC50) on human oxytocin receptor was determined as 3.87 nM.

Turning to `COc1ccccc1-c1ccc(C(=O)N2Cc3ccc(C(=O)N4CCN(c5ccncc5)CC4)n3Cc3ccccc32)cc1C` [Example 113, {10-[(2′-Methoxy-2-methyl-[1,1′-biphenyl]-4-yl)carbonyl]-10,11-dihydro-5H-pyrrolo[2,1-c][1,4]benzodiazepin-3-yl}[4-(4-pyridinyl)-1-piperazinyl]methanone], the IC50 on human oxytocin receptor amounted to 10.8 nM.
